Measured values from US20260008805A1, “ADENOSINE ANALOGS FOR THE TREATMENT OF DISEASE” (BIOINTERVENE, INC., priority 2022, published 2026).
Read-outs that look alike come from different tables or passages of the source.

Columns and labels:
human A3 receptors = target: T1, human A3 receptors (Homo sapiens, UniProt P0DMS8); assay: Adenosine receptor binding assay ([3H]HEMADO competition); details: Cheng-Prusoff, read-out: hA3 Ki
T1 construct: expressed in transfected cells; host or cells: HEK-293 cells, stably transfected; membrane preparation
T1 sequence (P0DMS8 1-318): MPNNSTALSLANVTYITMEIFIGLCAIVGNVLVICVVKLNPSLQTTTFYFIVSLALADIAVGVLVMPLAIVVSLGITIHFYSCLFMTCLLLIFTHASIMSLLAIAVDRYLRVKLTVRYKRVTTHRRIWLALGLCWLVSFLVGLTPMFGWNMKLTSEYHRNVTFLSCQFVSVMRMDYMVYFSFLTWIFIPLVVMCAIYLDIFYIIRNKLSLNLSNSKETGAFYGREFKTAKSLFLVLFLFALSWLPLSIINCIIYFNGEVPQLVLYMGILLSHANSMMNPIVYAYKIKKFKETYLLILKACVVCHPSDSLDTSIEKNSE
Excerpt: Materials and Reference Compounds: [^3H] HEMADO (obtained from (ARC, Cat: ART1456) and [3H] DPCPX (obtained from PerkinElmer Cat no. NET974250UC)). IB-MECA was obtained from Tocris (Bristol, UK) and N6-cyclopentyl adenosine (CPA) is obtained from Sigma-Alrich (Poole, UK). Cell culture media, G418 and hygromycin are obtained from Invitrogen (Paisley, UK). Fetal calf serum is obtained from Perbio Science (Cheshire, UK). All other reagents are obtained from Fisher Chemicals (Loughborough, UK).
The method followed is that of Yates L, Clark J H, Martin T J, James S, Broadley K J, Kidd E J. Radioligand binding and functional responses of ligands for human recombinant adenosine A3 receptors. Auton Autacoid Pharmacol. 2006; 26 (2): 191-200. Cells stably transfected with the human adenosine A3 or A1 receptor are grown in Dulbecco's modified Eagles medium with nutrient mixture F12 containing NaHCO3 and Glutamax. Media is supplemented with 10% fetal calf serum, geneticin (G418; 0.67 mg/mL), hygromycin (500 μg/mL) and adenosine deaminase (1 U/mL). Cells are maintained at 37° C. with 5% CO2 in air. Cells are harvested and homogenized in ice-cold Tris buffer [50 mM Tris, 150 mM NaCl, 1 mM ethylenediaminetetraacetic acid (EDTA), pH 7.4] supplemented with the peptidase inhibitors, 4-(2-aminoethyl)benzene sulfonylfluoride (1 mM) and bacitracin (0.1 mg/mL), using a Polytron homogenizer (3×10 s bursts). The homogenate is spun for 10 min (4° C.) at 500 g. The supernatant is retained and the pellet is re-suspended in the buffer, homogenized and spun as above. The combined supernatants are centrifuged for 15 min (4° C.) at 48,000 g. The resultant pellet is re-suspended in the buffer and centrifuged for a second time at 48,000 g. The membrane pellet is then suspended in Tris buffer containing no peptidase inhibitors or adenosine deaminase and stored at −80° C. at a protein concentration of 1 mg/mL.
Binding Assays: Radioligand-binding assays are performed using the adenosine A3 receptor agonist [^3H] HEMADO and the A1 receptor […] [^3H] DPCPX. Binding assays are conducted in a total volume of 100 μL containing a 50 mM Tris, pH 7.4 buffer with or without 10 mM MgCl2, 20 μg membranes and either 4.154 nM [3H] HEMADO (for the A3 receptor) or 1.6065 nM [^3H] DPCPX (for the A1 receptor). Assays are conducted at room temperature for 60 min (A1 receptor) or 120 min (A3 receptor) and terminated by the addition of 2 ml of ice-coldish buffer (50 mM Tris, pH 7.4 with or without 10 mM MgCl2) and rapid filtration over 0.03% polyethylenimine-treated Whatman GF/C filters using a Brandel cell harvester (Semat International Ltd., St Albans, UK). Filters are then ished three times with 2 ml of ice-cold buffer. The filter-bound radioactivity are counted using a Compugamma counter (LKB Wallac, Turku, Finland). Competition experiments are performed to investigate the ability of reference compounds and embodiments of the invention to inhibit [^3H] HEMADO binding. Non-specific binding are determined using the respective compound at its highest concentration.
Data Analysis: The Kd and Bmax values for binding data are calculated based upon the molar amounts of bound and free [^3H] HEMADO. […] IC50 and Ki values and Hill slopes for inhibition of the radioligand binding by the compounds of the invention are calculated from the ligand competition curves using the Excel spreadsheet and the Kd value calculated for either [^3H] HEMADO or [^3H] DPCPX. The results are expressed as a percent of control specific binding and as a percent inhibition of control specific binding obtained in the presence of the compounds of the invention. The IC50 values (concentration causing a half-maximal inhibition of control specific binding) and Hill coefficients (nH) are determined by non-linear regression analysis of the competition curves generated with mean replicate values using Hill equation curve fitting: […]

[1] = target: T2, human adenosine A3 receptor (Homo sapiens, UniProt P0DMS8); assay: Intracellular cAMP levels (inhibition of forskolin-stimulated cAMP production); type: cell-based; details: for EC50: CHO-K1 cells expressing human adenosine A3 receptor, forskolin 10 μM; for cAMP Efficacy (%): maximal response as percentage of the response produced by 100 nM IB-MECA
T2 construct: expressed in transfected cells; host or cells: CHO-K1 cells, stably transfected
T2 sequence (P0DMS8 1-318): T1 sequence (P0DMS8 1-318)
Excerpt: The method followed is that published in Yates L, Clark J H, Martin T J, James S, Broadley K J, Kidd E J. Radioligand binding and functional responses of ligands for human recombinant adenosine A3 receptors. Auton Autacoid Pharmacol. 2006 April; 26 (2): 191-200.
Materials and Cell Culture: Adenosine deaminase is obtained from Roche (Lewes, UK). Forskolin is obtained from Sigma-Aldrich (Poole, UK). The sources of other materials are provided above in Example 1. CHO-K1 cells stably transfected with the human adenosine A3 receptor are grown in Dulbecco's modified Eagles medium with nutrient mixture F12 containing NaHCO3 and Glutamax. Media is supplemented with 10% fetal calf serum, geneticin (G418; 0.67 mg/mL), hygromycin (500 μg/mL) and adenosine deaminase (1 U/mL). Cells are maintained at 37° C. with 5% CO2 in air.
CAMP Measurements: Intracellular cAMP production is measured directly using a non-acetylation cAMP enzyme immunoassay (Amersham Biosciences, Little Chalfont, UK). Cultured CHO cells expressing human adenosine A3 receptors are allowed to plate overnight in 96-well plates in culture medium containing adenosine deaminase. Twenty-four hours later, they are incubated with adenosine analogues or compounds of the invention (0.1 nM-1 μM) for 5 min at 37° C., followed by incubation with forskolin (10 μM) for 10 min. The cells are then lysed with 200 μL of lysis reagent 1 provided with the kit for 10 min to release intracellular CAMP. Aliquots of the supernatants are then transferred to a 96-well microtitre plate coated with donkey anti-rabbit IgG; 100-μL cAMP standards (12.5-3200 fmol/well) are also added to the microtitre plate; 100 μL of rabbit anti-cAMP antibody is added to all wells and incubated at 2-5° C. for 2 h. The antiserum is made up in lysis reagent 2, which sequesters the key component in lysis reagent 1 and ensures that CAMP is free for subsequent analysis. Then 50 μL of cAMP peroxidase conjugate is added to all wells and left to incubate for 60 min at 2-5° C. to allow competition for the antibody between the un-labelled and horse radish peroxidase (HRP)-labelled cAMP. Wells are then ished with buffer and 150 μL of enzyme substrate containing 3,3′,5,5′-tetramethylbenzidine/hydrogen peroxide in 20% (v/v) dimethylformamide is added to each well and left to incubate for 60 min on a Titramax 100 microtitre plate shaker (Heidolph Instruments, Schwabach, Germany) at room temperature for color development. The reaction is stopped by the addition of 100 μL of 1 M sulfuric acid and the optical density (OD) read at 450 nm on a spectrophotometric MRX microplate reader (Dynex Technologies, Chantilly, VA, USA).
Analyses: Each sample/standard was analyzed in duplicate and the resulting OD values averaged. The percent bound (B/B0) for each standard and sample was calculated using the following relationship:
[formula] • where B is the specific OD for standard/sample and B0 is the specific OD for the zero standard. A standard curve was generated by plotting % B/B0 as a function of the log fmol cAMP standard per well. The fmol per well value for cAMP in each sample was then read from the graph. The results are expressed as a percent of control agonist response: (measured response/control response)*100 in the presence of the compounds of the invention. Concentration-response curves for inhibition of cAMP production were constructed for all compounds of the invention and reference compounds. The EC50 values (concentration producing a half-maximal response) were determined by non-linear regression analysis of the concentration-response curves generated with mean replicate values using Hill equation curve fitting, according to the equation:
[formula] • where Y=response, A=left asymptote of the curve, D=right asymptote of the curve, C=compound concentration, and C50=EC50, and nH=slope factor. […]

[2] = Table 1, membranes of HEK-293 cells expressing human A3 receptor
[3] = Table 2, membranes of HEK-293 cells expressing human A3 receptor
[4] = Table 2, # = average between two data points

Cc1nc2c(Cl)nc3c(ncn3[C@H]3[C@H](O)[C@H](O)[C@]4(c5nnn(C)n5)C[C@H]34)c2[nH]1 [Compound 3B]
Ki (human A3 receptors; [2]): 1.27 nM | EC50 ([1]; Table 1): 1 nM | cAMP Efficacy (%) ([1]; Table 1): 31.72%

Cc1cc2c(Cl)nc3c(ncn3[C@H]3[C@H](O)[C@H](O)[C@]4(c5ncn(C)n5)C[C@H]34)c2[nH]1 [Compound 2B]
Ki (human A3 receptors; [2]): 1.24 nM | EC50 ([1]; Table 1): 0.17 nM | cAMP Efficacy (%) ([1]; Table 1): 104%

CNC(=O)[C@@]12C[C@@H]1[C@@H](n1cnc3c4[nH]c(C)cc4c(Cl)nc31)[C@H](O)[C@@H]2O [2A*]
Ki (human A3 receptors; [3]): 0.543 nM

N#Cc1cc(NCc2cc(Cl)ccc2Cl)c2ncn([C@H]3[C@H](O)[C@H](O)[C@]4(c5ncc[nH]5)C[C@H]34)c2n1 [Compound 8B]
Ki (human A3 receptors; [2]): 12.1 nM | EC50 ([1]; Table 1): 1.87 nM | cAMP Efficacy (%) ([1]; Table 1): 104.81%

CC1Cc2c(Cl)nc3c(ncn3[C@H]3[C@H](O)[C@H](O)[C@]4(CO)C[C@H]34)c2N1 (stereo partly shown) [3A*]
Ki (human A3 receptors; [3]): 65.7 nM

Cc1cc2c(C#CC3CC3)nc3c(ncn3[C@H]3[C@H](O)[C@H](O)C4C[C@@H]43)c2[nH]1 (stereo partly shown) [7A*]
Ki (human A3 receptors; [3]): 0.619 nM | EC50 [1, 4]: 0.91 nM | cAMP Efficacy (%) [1, 4]: 47.98%

CCNc1cc(Cl)nc2c1ncn2[C@H]1[C@H](O)[C@H](O)[C@]2(c3ncc[nH]3)C[C@H]12 [Compound 12B]
Ki (human A3 receptors; [2]): 31.2 nM | EC50 ([1]; Table 1): 5.5 nM | cAMP Efficacy (%) ([1]; Table 1): 107.37%

CNC(=O)[C@H]1O[C@@H](n2cnc3c4[nH]c(C)cc4c(Cl)nc32)[C@H](O)[C@@H]1O [1A*]
Ki (human A3 receptors; [3]): 1.79 nM

Cc1cc2c(Cl)nc3c(ncn3[C@H]3[C@H](O)[C@H](O)C4C[C@@H]43)c2[nH]1 (stereo partly shown) [15A*]
Ki (human A3 receptors; [3]): 2.27 nM | EC50 [1, 4]: 0.2 nM | cAMP Efficacy (%) [1, 4]: 94.66^# %

Cn1nnc([C@@]23C[C@@H]2[C@@H](n2cnc4c5[nH]c(C=O)cc5c(Cl)nc42)[C@H](O)[C@@H]3O)n1 [Compound 4B]
Ki (human A3 receptors; [2]): 2.72 nM | EC50 ([1]; Table 1): 100 nM | cAMP Efficacy (%) ([1]; Table 1): 10%

CNC(=O)[C@@]12C[C@@H]1[C@@H](n1cnc3c4c(c(Cl)nc31)CCC(C)N4)[C@H](O)[C@@H]2O (stereo partly shown) [10A*]
Ki (human A3 receptors; [3]): 2 nM | EC50 [1, 4]: 0.48 nM | cAMP Efficacy (%) [1, 4]: 105.25%

CCNc1cc(Cl)nc2c1ncn2[C@H]1[C@H](O)[C@H](O)[C@]2(c3ncco3)C[C@H]12 [Compound 10B]
Ki (human A3 receptors; [2]): 41 nM | EC50 ([1]; Table 1): 16.1 nM | cAMP Efficacy (%) ([1]; Table 1): 70.12%

CCNc1cc(Cl)nc2c1ncn2[C@H]1[C@H](O)[C@H](O)[C@]2(c3nnn(C)n3)C[C@H]12 [Compound 13B]
Ki (human A3 receptors; [2]): 2.1 nM | cAMP Efficacy (%) ([1]; Table 1): 2%

Cc1cc2c(Cl)nc3c(ncn3[C@H]3[C@H](O)[C@H](O)[C@]4(C(N)=O)C[C@H]34)c2[nH]1 [25A*]
Ki (human A3 receptors; [3]): 24.2 nM | EC50 [1, 4]: 4.15 nM | cAMP Efficacy (%) [1, 4]: 96.54%

Cc1cc2c(Cl)nc3c(ncn3[C@H]3[C@H](O)[C@H](O)[C@]4(c5ncc[nH]5)C[C@H]34)c2[nH]1 [Compound 6B]
Ki (human A3 receptors; [2]): 6.36 nM | EC50 ([1]; Table 1): 0.14 nM | cAMP Efficacy (%) ([1]; Table 1): 105.39%

CCNc1cc(Cl)nc2c1ncn2[C@H]1[C@H](O)[C@H](O)[C@]2(c3nnnn3C)C[C@H]12 [Compound 11B]
Ki (human A3 receptors; [2]): > 806 nM

Cc1cc2c(C#N)nc3c(ncn3[C@H]3[C@H](O)[C@H](O)C4C[C@@H]43)c2[nH]1 (stereo partly shown) [4A*]
Ki (human A3 receptors; [3]): 1.09 nM

Cc1nc2c(Cl)nc3c(ncn3[C@H]3[C@H](O)[C@H](O)C4C[C@@H]43)c2[nH]1 (stereo partly shown) [22A*]
Ki (human A3 receptors; [3]): 1.8 nM

CC1CC(=O)c2c(Cl)nc3c(ncn3[C@@H]3[C@@H](O)[C@@H](O)[C@@]4(CO)C[C@@H]34)c2N1 (stereo partly shown) [13A*]
Ki (human A3 receptors; [3]): 24.1 nM

O[C@H]1[C@H](n2cnc3c4[nH]c(C(F)F)cc4c(Cl)nc32)[C@H]2CC2[C@H]1O (stereo partly shown) [24A*]
Ki (human A3 receptors; [3]): 0.916 nM

CNC(=O)[C@@]12C[C@@H]1[C@@H](n1cnc3c4c(c(Cl)nc31)C(=O)CC(C)N4)[C@H](O)[C@@H]2O (stereo partly shown) [11A*]
Ki (human A3 receptors; [3]): 3.36 nM

Cc1cc2c(Cl)nc3c(ncn3[C@H]3[C@H](O)[C@H](O)[C@]4(c5ncnn5C)C[C@H]34)c2[nH]1 [Compound 7B]
Ki (human A3 receptors; [2]): 151 nM

CCOc1nc2c(ncn2[C@H]2[C@H](O)[C@H](O)C3C[C@@H]32)c2[nH]c(C)cc12 (stereo partly shown) [21A*]
Ki (human A3 receptors; [3]): 36 nM
